pIC50: −log10 of the molar value.
The compounds below were run against T1, human KSP motor domain (KSP(367H)) (Homo sapiens, UniProt P52732) (assay: Kinesin ATPase In Vitro Assay). Settings: kinesin motor domain with microtubules, 1 mM ATP, 23° C.; free phosphate by quinaldine red/ammonium molybdate.
T1 construct: were used to amplify the motor domain and the neck linker region; made in house; host or cells: E. coli BL21 (DE3), pRSETa
T1 sequence (P52732 18-359 limits assumed): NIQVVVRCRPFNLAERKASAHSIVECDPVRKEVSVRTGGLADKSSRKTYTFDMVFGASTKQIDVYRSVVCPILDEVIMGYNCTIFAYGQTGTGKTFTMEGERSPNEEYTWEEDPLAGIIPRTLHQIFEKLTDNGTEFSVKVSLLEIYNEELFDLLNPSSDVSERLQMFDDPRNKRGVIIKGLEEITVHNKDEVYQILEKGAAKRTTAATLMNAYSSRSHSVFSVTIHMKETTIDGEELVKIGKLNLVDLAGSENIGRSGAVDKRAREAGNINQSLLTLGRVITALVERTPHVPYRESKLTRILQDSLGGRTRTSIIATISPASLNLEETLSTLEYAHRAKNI
Format: biochemical
Excerpt: I. Kinesin ATPase In Vitro Assay
Cloning and Expression of Human Poly-histidine Tagged KSP Motor Domain (KSP(367H))
Plasmids for the expression of the human KSP motor domain construct were cloned by PCR using a pBluescript full length human KSP construct (Blangy et al., Cell, vol. 83, pp 1159-1169, 1995) as a template. The N-terminal primer 5′-[…] (SEQ.ID.NO.: 1) and the C-terminal primer 5′-[…] […] (SEQ.ID.NO.: 2) were used to amplify the motor domain and the neck linker region. The PCR products were digested with AseI and XhoI, ligated into the NdeI/XhoI digestion product of pRSETa (Invitrogen) and transformed into E. coli BL21 (DE3).
Cells were grown at 37° C. to an OD600 of 0.5. After cooling the culture to room temperature expression of KSP was induced with 100 μM IPTG and incubation was continued overnight. Cells were pelleted by centrifugation and washed once with ice-cold PBS. Pellets were flash-frozen and stored −80° C.
Cell pellets were thawed on ice and resuspended in lysis buffer (50 mM K-HEPES, pH 8.0, 250 mM KCl, 0.1% Tween, 10 mM imidazole, 0.5 mM Mg-ATP, 1 mM PMSF, 2 mM benzimidine, 1× complete protease inhibitor cocktail (Roche)). Cell suspensions were incubated with 1 mg/ml lysozyme and 5 mM β-mercaptoethanol on ice for 10 minutes, followed by sonication (3×30 sec). All subsequent procedures were performed at 4° C. Lysates were centrifuged at 40,000×g for 40 minutes. Supernatants were diluted and loaded onto an SP Sepharose column (Pharmacia, 5 ml cartridge) in buffer A (50 mM K-HEPES, pH 6.8, 1 mM MgCl2, 1 mM EGTA, 10 μM Mg-ATP, 1 mM DTT) and eluted with a 0 to 750 mM KCl gradient in buffer A. Fractions containing KSP were pooled and incubated with Ni-NTA resin (Qiagen) for one hour. The resin was washed three times with buffer B (Lysis buffer minus PMSP and protease inhibitor cocktail), followed by three 15-minute incubations and washes with buffer B. Finally, the resin was incubated and washed for 15 minutes three times with buffer C (same as buffer B except for pH 6.0) and poured into a column. KSP was eluted with elution buffer (identical to buffer B except for 150 mM KCl and 250 mM imidazole). KSP-containing fractions were pooled, made 10% in sucrose, and stored at −80° C.
Microtubules are prepared from tubulin isolated from bovine brain. Purified tubulin (>97% MAP-free) at 1 mg/ml is polymerized at 37° C. in the presence of 10 μM paclitaxel, 1 mM DTT, 1 mM GTP in BRB80 buffer (80 mM K-PIPES, 1 mM EGTA, 1 mM MgCl2 at pH 6.8). The resulting microtubules are separated from non-polymerized tubulin by ultracentrifugation and removal of the supernatant. The pellet, containing the microtubules, is gently resuspended in 10 μM paclitaxel, 1 mM DTT, 50 μg/ml ampicillin, and 5 μg/ml chloramphenicol in BRB80.
The kinesin motor domain is incubated with microtubules, 1 mM ATP (1:1 MgCl2: Na-ATP), and compound at 23° C. in buffer containing 80 mM K-HEPES (pH 7.0), 1 mM EGTA, 1 mM DTT, 1 mM MgCl2, and 50 mM KCl. The reaction is terminated by a 2-10 fold dilution with a final buffer composition of 80 mM HEPES and 50 mM EDTA. Free phosphate from the ATP hydrolysis reaction is measured via a quinaldine red/ammonium molybdate assay by adding 150 μl of quench C buffer containing a 2:1 ratio of quench A:quench B. Quench A contains 0.1 mg/ml quinaldine red and 0.14% polyvinyl alcohol; quench B contains 12.3 mM ammonium molybdate tetrahydrate in 1.15 M sulfuric acid. The reaction is incubated for 10 minutes at 23° C., and the absorbance of the phospho-molybdate complex is measured at 540 nm.

| pIC50 | SMILES |
| --- | --- |
| ≥ 4.30 | CN(C(=O)N1CC(c2cc(F)ccc2F)=CC1(CO)c1ccccc1)C1CCN(CC(F)F)CC1 (stereo not drawn) [Compound 10-1, N-[1-(2,2-difluoroethyl)piperidin-4-yl]-4-(2,5-difluorophenyl)-2-(hydroxymethyl)-N-methyl-2-phenyl-2,5-dihydro-1H-pyrrole-1-carboxamide] |
| ≥ 4.30 | CN(C(=O)N1CC(c2cc(F)ccc2F)=C[C@@]1(CO)c1ccccc1)C1CCN(CCF)CC1 [Compound 12-1, (2S)-4-(2,5-difluorophenyl)-N-[1-(2-fluoroethyl)piperidin-4-yl]-2-(hydroxymethyl)-N-methyl-2-phenyl-2,5-dihydro-1H-pyrrole-1-carboxamide] |
| ≥ 4.30 | CN(C)C(=O)N1CC(c2cc(F)ccc2F)=CC1(CCC(=O)Nc1ccccc1)c1ccccc1 (stereo not drawn) [Compound 24-2, 2-(3-anilino-3-oxopropyl)-4-(2,5-difluorophenyl)-N,N-dimethyl-2-phenyl-2,5-dihydro-1H-pyrrole-1-carboxamide] |
